Results as given in publication PMC7083565, “In vitro metabolism, reaction phenotyping, enzyme kinetics, CYP inhibition and induction potential of ataluren” (Pharmacology Research & Perspectives, 2020).

What was measured:
[1] = Plasma protein binding (ultrafiltration), mouse; type: in vitro ADME; settings: male, C57/BL10, 50 to 50 000 ng/mL, mean ± SD, n = 3, read-out: percentage protein binding (converted)
Description: [^14C]‐Ataluren, at 50, 500, 5000, and 50 000 ng/mL or 0.175, 1.75, 17.5, and 175 µM, in male mouse, rat, dog, monkey, and human plasma, was incubated (n = 3) at 37°C for approximately 15 minutes, transferred into Centrifree® Micropartition Units (30 000 Da molecular weight cutoff, 1 mL capacity; Amicon Inc), and centrifuged at 37°C and 2000 g for approximately 10 minutes so that the amount of the sample filtered was approximately ≤ 20% of the total volume. After centrifugation, the entire ultrafiltrate was weighed and analyzed for radioactivity using liquid scintillation counting. The percent bound = (1‐Cu/Cm)×100, where Cu is the concentration of radioactivity in the ultrafiltrate and Cm is the concentration of radioactivity in the plasma before centrifugation.

[2] = Glucuronidation in pooled human lung microsomes; type: in vitro ADME; settings: lung microsomes 1 mg protein/mL, 10 μmol/L
Description: Ataluren at 10 μmol/L, was incubated (n = 1) with pooled human intestinal, lung, and kidney microsomes (1 mg protein/mL, preactivated with alamethicin) to evaluate if ataluren‐O‐1β‐acyl glucuronide will be formed in these extrahepatic tissues. Incubation mixtures and procedures were essentially the same as the above. The supernatant fractions were analyzed by LC‐MS/MS to quantify the formation of ataluren‐O‐1β‐acyl glucuronide and the loss of ataluren. Detailed LC‐MS/MS conditions are summarized in LC‐MS/MS Analysis section. […] The ataluren acyl glucuronide formation rate after 60 minutes incubation was calculated using the amount of metabolite formed (pmol) divided by the protein amount in the incubation sample ([…]) and the incubation time (60 minutes).
Quantification of ataluren loss and ataluren‐O‐1β‐acyl glucuronide formation was carried out with an LC‐MS/MS system, which consisted of two Shimadzu LC‐10ADvp pumps, a SPD10‐AVP UV/Vis detector, a Shimadzu SILHTA autosampler, a Shimadzu DGU‐14A degasser, and a Sciex API 4000 QTRAP mass spectrometer equipped with a Turbo Ionspray ionization source that operated in positive ionization mode. […] Ion transitions monitored were at m/z 285 → m/z 123 for ataluren, m/z 461 → m/z 285 for ataluren acyl glucuronide, and m/z 289 → m/z 127 for ataluren‐D4 (internal standard), respectively.

[3] = target: T1, CYP1A2 (Homo sapiens, UniProt P05177); assay: CYP inhibition in pooled human liver microsomes: CYP1A2; type: in vitro ADME; settings: CYP1A2, HLM, estimated, concentrations up to 400 μmol/L
T1 construct: tissue XenoTech LLC, Celsis-In Vitro Technologies, or Tissue Transformation Technologies; host or cells: pooled human liver microsomes
T1 sequence (P05177 1-516): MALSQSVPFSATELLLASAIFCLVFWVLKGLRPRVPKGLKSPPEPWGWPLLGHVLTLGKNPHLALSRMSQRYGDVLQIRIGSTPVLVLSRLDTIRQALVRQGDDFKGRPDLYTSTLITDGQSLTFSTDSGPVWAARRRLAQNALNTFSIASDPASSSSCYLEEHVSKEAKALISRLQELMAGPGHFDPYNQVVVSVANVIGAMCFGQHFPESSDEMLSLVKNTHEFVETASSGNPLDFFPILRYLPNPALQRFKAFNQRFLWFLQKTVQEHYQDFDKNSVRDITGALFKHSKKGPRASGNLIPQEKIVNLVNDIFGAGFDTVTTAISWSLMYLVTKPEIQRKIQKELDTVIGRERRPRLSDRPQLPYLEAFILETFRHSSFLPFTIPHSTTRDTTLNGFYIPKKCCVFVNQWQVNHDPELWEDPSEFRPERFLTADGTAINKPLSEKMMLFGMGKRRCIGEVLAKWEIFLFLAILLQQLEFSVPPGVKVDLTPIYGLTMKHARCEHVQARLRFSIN
Description: The final concentration of each probe substrate was near the experimentally determined Km value for the indicated enzyme. Ataluren or prototypical CYP inhibitors (positive controls) was incubated (n = 3) with probe substrates and HLM in 100 mmol/L phosphate buffer (pH 7.4) in a total volume of approximately 0.25 mL, and the reactions were initiated by the addition of 1 mmol/L NADPH at 37°C. The reactions were carried out using previously established conditions to ensure linearity with respect to protein concentration and incubation time (Table S1). Incubations were stopped with the addition of ice‐cold acetonitrile. Metabolite formation in incubations with test compound and control inhibitors was assessed with LC‐MS/MS methods for each of the reaction products as described in Table S2. […] After 7 minutes incubation at 37°C, the reaction was stopped by the addition of ice‐cold acetonitrile, followed by membrane plate filtration. The filtrates were used for LC‐MS/MS analysis. […] IC50 values were determined by nonlinear regression with GraphPad Prism 5 using the following four‐parameter sigmoidal‐logistic IC50 equation: Fit=background+range-background/[1+I/IC50^slope]
Where, I is the inhibitor concentration, and background was set to 0 and range to 100, as percent of control values are utilized. K i was determined by nonlinear regression with GraphPad Prism 5 using best fit model.

[4] = system: CYP1A2; assay: CYP induction in primary human hepatocytes: CYP1A2; settings: Phenacetin O-deethylase, 48 hours, n=3

O=C(O)c1cccc(-c2noc(-c3ccccc3F)n2)c1 [ataluren, Ataluren]
fraction unbound at 15 min [1]: 0.016
Glucuronidation of ataluren observed [2]: not in lung microsomes
IC50 [3]: > 400 µM
Positive control %, Mean ([4]; ataluren 4 µM): 1.32%
Positive control %, Mean ([4]; ataluren 40 µM): 1.24%
Vehicle control %, Mean ([4]; ataluren 40 µM): 116%
Positive control %, Mean ([4]; ataluren 400 µM): 0.087%
Vehicle control %, Mean ([4]; ataluren 400 µM): 100%
